Data published in ChEMBL document CHEMBL2346651, “Structure-activity relationship study of tachykinin peptides for the development of novel neurokinin-3 receptor selective agonists” (Bioorg Med Chem, 2013).
Residues, ends and D or L forms follow the SMILES beside them.

How the values were obtained:
[1] = biological target: T1, Substance-K receptor (Homo sapiens) (UniProt P21452); experiment: Displacement of [125I]-NKA from NK2R (unknown origin) transfected in CHO cells at 10 uM by gamma counting analysis; assay type: cell-based
T1 sequence (whole entry): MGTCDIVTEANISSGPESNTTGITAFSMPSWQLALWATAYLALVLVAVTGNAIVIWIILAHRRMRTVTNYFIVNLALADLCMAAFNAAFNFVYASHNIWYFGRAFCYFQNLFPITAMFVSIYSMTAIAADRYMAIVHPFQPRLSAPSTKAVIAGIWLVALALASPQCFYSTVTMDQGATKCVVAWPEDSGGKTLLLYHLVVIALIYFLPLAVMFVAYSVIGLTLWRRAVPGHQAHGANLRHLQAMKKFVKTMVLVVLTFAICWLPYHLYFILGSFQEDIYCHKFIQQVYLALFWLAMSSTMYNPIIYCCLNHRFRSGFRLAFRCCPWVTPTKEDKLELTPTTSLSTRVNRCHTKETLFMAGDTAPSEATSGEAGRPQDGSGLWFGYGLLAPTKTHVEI

[2] = biological target: Substance-P receptor (Homo sapiens) (UniProt P25103); experiment: Displacement of [125I]-BH-SP from NK1R (unknown origin) transfected in CHO cells at 10 uM by gamma counting analysis; assay type: cell-based
Chain of Substance-P receptor (Homo sapiens) (P25103 whole entry): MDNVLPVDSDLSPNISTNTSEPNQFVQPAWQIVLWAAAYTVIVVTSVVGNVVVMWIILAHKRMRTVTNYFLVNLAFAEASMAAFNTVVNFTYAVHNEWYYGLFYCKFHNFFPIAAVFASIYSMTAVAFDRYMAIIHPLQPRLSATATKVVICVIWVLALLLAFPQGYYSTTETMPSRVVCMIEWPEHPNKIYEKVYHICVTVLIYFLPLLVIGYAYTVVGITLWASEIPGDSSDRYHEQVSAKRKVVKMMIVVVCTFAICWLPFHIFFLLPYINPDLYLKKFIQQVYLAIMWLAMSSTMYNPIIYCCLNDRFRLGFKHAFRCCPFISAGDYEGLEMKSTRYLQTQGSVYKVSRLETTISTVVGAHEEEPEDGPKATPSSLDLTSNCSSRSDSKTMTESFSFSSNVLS

Neuromedin-K receptor [3] = biological target: T2, Neuromedin-K receptor (Homo sapiens, UniProt P29371); experiment: Agonist activity at NK3R (unknown origin) transfected in CHO cells assessed as calcium influx […]; assay type: functional, cell-based
T2 sequence (P29371 whole entry): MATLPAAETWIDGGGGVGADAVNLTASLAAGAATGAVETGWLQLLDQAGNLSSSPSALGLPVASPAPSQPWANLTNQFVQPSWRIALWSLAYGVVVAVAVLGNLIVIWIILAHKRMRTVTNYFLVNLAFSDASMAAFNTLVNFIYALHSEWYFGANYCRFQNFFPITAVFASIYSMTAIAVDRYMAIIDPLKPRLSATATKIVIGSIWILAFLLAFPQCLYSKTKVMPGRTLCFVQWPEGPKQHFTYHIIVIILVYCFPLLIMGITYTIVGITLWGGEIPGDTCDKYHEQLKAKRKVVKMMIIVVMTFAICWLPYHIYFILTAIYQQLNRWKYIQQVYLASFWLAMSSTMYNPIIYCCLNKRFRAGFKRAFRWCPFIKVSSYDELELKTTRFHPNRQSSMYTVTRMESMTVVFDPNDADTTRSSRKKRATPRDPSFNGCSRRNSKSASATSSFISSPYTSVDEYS

Neuromedin-K receptor [4] = biological target: T2, Neuromedin-K receptor; experiment: Displacement of ([125I]-His3, MePhe7)-NKB from NK3R (unknown origin) transfected in CHO cells by gamma counting analysis; assay type: cell-based

Molecule | inhibition [1] | inhibition [2] | EC50 (Neuromedin-K receptor [3]) | IC50 (Neuromedin-K receptor [4])
H-DVPKSDDFVGLM-NH2 | 74% | 53% | 0.47 nM | 89 nM
CSCC[C@H](NC(=O)[C@H](CC(C)C)NC(=O)CNC(=O)[C@H](Cc1ccccc1)N(C)C(=O)[C@H](Cc1ccccc1)NC(=O)[C@H](CC(N)=O)NC(=O)[C@H](CC(=O)O)NC(=O)[C@H](Cc1cnc[nH]1)NC(=O)[C@H](CCSC)NC(=O)[C@@H](N)CC(=O)O)C(N)=O (HELM PEPTIDE1{D.M.H.D.N.F.[meF].G.L.M.[am]}$$$$V2.0) | 10% | < 10% | 0.036 nM | 18 nM
CC[C@H](C)[C@H](NC(=O)[C@H](Cc1ccccc1)NC(=O)[C@H](CC(=O)O)NC(=O)[C@H](CC(=O)O)NC(=O)[C@H](CCCCN)NC(=O)[C@H](CO)NC(=O)[C@@H]1CCCN1C(=O)[C@@H]1CCC(=O)N1)C(=O)NCC(=O)N[C@@H](CC(C)C)C(=O)N[C@@H](CCSC)C(N)=O (HELM PEPTIDE1{[Glp].P.S.K.D.D.F.I.G.L.M.[am]}$$$$V2.0) | 56% | 91% | 0.0054 nM | 35 nM
CSCC[C@H](NC(=O)[C@H](CC(C)C)NC(=O)CNC(=O)[C@H](Cc1ccccc1)N(C)C(=O)[C@H](Cc1ccccc1)NC(=O)[C@H](CC(=O)O)NC(=O)[C@H](CC(=O)O)NC(=O)CNC(=O)[C@@H](NC(=O)[C@@H](N)CC(=O)O)[C@@H](C)O)C(N)=O (HELM PEPTIDE1{D.T.G.D.D.F.[meF].G.L.M.[am]}$$$$V2.0) | < 10% | < 10% | 0.11 nM | 81 nM
CSCC[C@H](NC(=O)[C@H](CC(C)C)NC(=O)CNC(=O)[C@H](Cc1ccccc1)N(C)C(=O)[C@H](Cc1ccccc1)NC(=O)[C@@H](NC(=O)[C@H](CC(=O)O)NC(=O)[C@H](Cc1cnc[nH]1)NC(=O)[C@H](CCSC)NC(=O)[C@@H](N)CC(=O)O)[C@@H](C)O)C(N)=O (HELM PEPTIDE1{D.M.H.D.T.F.[meF].G.L.M.[am]}$$$$V2.0) | 19% | < 10% | 0.046 nM | 4.3 nM
CSCC[C@H](NC(=O)[C@H](CC(C)C)NC(=O)CNC(=O)[C@H](Cc1ccccc1)N(C)C(=O)[C@H](Cc1ccccc1)NC(=O)[C@H](CC(C)C)NC(=O)[C@H](CC(=O)O)NC(=O)[C@H](Cc1cnc[nH]1)NC(=O)[C@H](CCSC)NC(=O)[C@@H](N)CC(=O)O)C(N)=O (HELM PEPTIDE1{D.M.H.D.L.F.[meF].G.L.M.[am]}$$$$V2.0) | 29% | < 10% | 0.051 nM | 6.9 nM
CSCC[C@H](NC(=O)[C@H](CC(C)C)NC(=O)CNC(=O)[C@H](Cc1ccccc1)N(C)C(=O)[C@H](Cc1ccccc1)NC(=O)[C@H](CC(=O)O)NC(=O)[C@H](CC(N)=O)NC(=O)[C@@H]1CCCN1C(=O)[C@H](CO)NC(=O)[C@@H]1CCCN1C(=O)[C@@H]1CCC(=O)N1)C(N)=O (HELM PEPTIDE1{[Glp].P.S.P.N.D.F.[meF].G.L.M.[am]}$$$$V2.0) | < 10% | < 10% | 0.13 nM | 17 nM
CSCC[C@H](NC(=O)[C@H](CC(C)C)NC(=O)CNC(=O)[C@H](Cc1ccc(O)cc1)NC(=O)[C@H](Cc1ccccc1)NC(=O)[C@H](CCC(=O)O)NC(=O)[C@H](CC(=O)O)NC(=O)[C@@H]1CCCN1C(=O)[C@H](CC(N)=O)NC(=O)[C@@H]1CCCN1C(=O)[C@@H]1CCC(=O)N1)C(N)=O (HELM PEPTIDE1{[Glp].P.N.P.D.E.F.Y.G.L.M.[am]}$$$$V2.0) | < 10% | 98% | 1.38 nM | 710 nM
CSCC[C@H](NC(=O)[C@H](CC(C)C)NC(=O)CNC(=O)[C@H](Cc1ccccc1)N(C)C(=O)[C@H](Cc1ccccc1)NC(=O)[C@H](C)NC(=O)[C@H](CC(=O)O)NC(=O)[C@H](CCCCN)NC(=O)[C@H](CO)NC(=O)[C@@H]1CCCN1C(=O)[C@@H]1CCC(=O)N1)C(N)=O (HELM PEPTIDE1{[Glp].P.S.K.D.A.F.[meF].G.L.M.[am]}$$$$V2.0) | 26% | 48% | 0.071 nM | 7 nM
CSCC[C@H](NC(=O)[C@H](CC(C)C)NC(=O)CNC(=O)[C@H](Cc1ccccc1)N(C)C(=O)[C@H](Cc1ccccc1)NC(=O)[C@H](CCC(N)=O)NC(=O)[C@H](CC(=O)O)NC(=O)[C@H](Cc1cnc[nH]1)NC(=O)[C@H](CCSC)NC(=O)[C@@H](N)CC(=O)O)C(N)=O (HELM PEPTIDE1{D.M.H.D.Q.F.[meF].G.L.M.[am]}$$$$V2.0) | 21% | 24% | 0.043 nM | 4.6 nM
CSCC[C@H](NC(=O)[C@H](CC(C)C)NC(=O)CNC(=O)[C@H](Cc1ccccc1)N(C)C(=O)[C@H](Cc1ccccc1)NC(=O)[C@H](CCSC)NC(=O)[C@H](CC(=O)O)NC(=O)[C@H](Cc1cnc[nH]1)NC(=O)[C@H](CCSC)NC(=O)[C@@H](N)CC(=O)O)C(N)=O (HELM PEPTIDE1{D.M.H.D.M.F.[meF].G.L.M.[am]}$$$$V2.0) | 41% | < 10% | 0.032 nM | 1.7 nM
CSCC[C@H](NC(=O)[C@H](CC(C)C)NC(=O)CNC(=O)[C@H](Cc1ccccc1)N(C)C(=O)[C@H](Cc1ccccc1)NC(=O)[C@H](CC(=O)O)NC(=O)[C@H](CC(=O)O)NC(=O)[C@@H]1CCCN1C(=O)[C@H](CC(N)=O)NC(=O)[C@@H]1CCCN1C(=O)[C@@H]1CCC(=O)N1)C(N)=O (HELM PEPTIDE1{[Glp].P.N.P.D.D.F.[meF].G.L.M.[am]}$$$$V2.0) | < 10% | < 10% | 0.083 nM | 19 nM
CSCC[C@H](NC(=O)[C@H](CC(C)C)NC(=O)CNC(=O)[C@H](Cc1ccccc1)N(C)C(=O)[C@H](Cc1ccccc1)NC(=O)[C@H](Cc1ccc(O)cc1)NC(=O)[C@H](CC(=O)O)NC(=O)[C@H](Cc1cnc[nH]1)NC(=O)[C@H](CCSC)NC(=O)[C@@H](N)CC(=O)O)C(N)=O (HELM PEPTIDE1{D.M.H.D.Y.F.[meF].G.L.M.[am]}$$$$V2.0) | 51% | < 10% | 0.072 nM | 1.5 nM
CSCC[C@H](NC(=O)[C@H](CC(C)C)NC(=O)CNC(=O)[C@@H](NC(=O)[C@H](Cc1ccccc1)NC(=O)[C@H](CCC(=O)O)NC(=O)[C@H](CC(=O)O)NC(=O)[C@@H]1CCCN1C(=O)[C@H](CC(N)=O)NC(=O)[C@@H]1CCCN1C(=O)[C@@H]1CCC(=O)N1)C(C)C)C(N)=O (HELM PEPTIDE1{[Glp].P.N.P.D.E.F.V.G.L.M.[am]}$$$$V2.0) | 92% | 94% | 0.079 nM | 53 nM
CSCC[C@H](NC(=O)[C@H](CC(C)C)NC(=O)CNC(=O)[C@H](Cc1ccccc1)N(C)C(=O)[C@H](Cc1ccccc1)NC(=O)[C@H](CCC(N)=O)NC(=O)[C@H](CC(=O)O)NC(=O)[C@H](CO)NC(=O)[C@H](CCCCN)NC(=O)[C@@H]1CCCN1C(=O)[C@@H](NC(=O)[C@@H](N)CC(=O)O)C(C)C)C(N)=O (HELM PEPTIDE1{D.V.P.K.S.D.Q.F.[meF].G.L.M.[am]}$$$$V2.0) | 11% | 46% | 0.038 nM | 13 nM
CSCC[C@H](NC(=O)[C@H](CC(C)C)NC(=O)CNC(=O)[C@H](Cc1ccccc1)N(C)C(=O)[C@H](Cc1ccccc1)NC(=O)CNC(=O)[C@H](CC(=O)O)NC(=O)[C@H](Cc1cnc[nH]1)NC(=O)[C@H](CCSC)NC(=O)[C@@H](N)CC(=O)O)C(N)=O (HELM PEPTIDE1{D.M.H.D.G.F.[meF].G.L.M.[am]}$$$$V2.0) | 22% | < 10% | 0.036 nM | 13 nM
CSCC[C@H](NC(=O)[C@H](CC(C)C)NC(=O)CNC(=O)[C@H](Cc1ccccc1)N(C)C(=O)[C@H](Cc1ccccc1)NC(=O)[C@H](CC(=O)O)NC(=O)[C@H](CC(=O)O)NC(=O)[C@H](CCCCN)NC(=O)[C@H](CO)NC(=O)[C@@H]1CCCN1C(=O)[C@@H]1CCC(=O)N1)C(N)=O (HELM PEPTIDE1{[Glp].P.S.K.D.D.F.[meF].G.L.M.[am]}$$$$V2.0) | < 10% | < 10% | 0.078 nM | 5.5 nM
CSCC[C@H](NC(=O)[C@H](CC(C)C)NC(=O)CNC(=O)[C@H](Cc1ccccc1)N(C)C(=O)[C@H](Cc1ccccc1)NC(=O)[C@H](CC(=O)O)NC(=O)[C@H](CC(=O)O)NC(=O)[C@H](CO)NC(=O)[C@H](CCCCN)NC(=O)[C@@H]1CCCN1C(=O)[C@@H](NC(=O)[C@@H](N)CC(=O)O)C(C)C)C(N)=O (HELM PEPTIDE1{D.V.P.K.S.D.D.F.[meF].G.L.M.[am]}$$$$V2.0) | < 10% | < 10% | 0.085 nM | 27 nM
